Results from US20090239926A1, “METHODS FOR THE TREATMENT OF PSORIASIS OR PSORIATIC ARTHRITIS USING CYCLOPROPYL-N-CARBOXAMIDE” (priority 2008, published 2009).
Values joined by “and” are separate entries in the source; they are usually repeats but may differ in a detail not shown here. Equal entries are not always repeated.

Experiments:
[1] = target: T1, PDE5 from human platelets (Homo sapiens, UniProt O76074); assay: Specificity: PDE5; type: biochemical
T1 construct: PDE3 and PDE5 from human platelets; from tissue; host or cells: human platelets
Experimental: The specificity of Compound A for PDE4 was assessed by testing at a single concentration (10 μM) against bovine PDE1, human PDE2, PDE3 and PDE5 from human platelets, and PDE6 from bovine retinal rod outer segments.

[2] = system: IL-5 production by human CD4+ T cells; assay: IL-5 production by CD4+ T cells; type: cell-based; conditions: CD4+ T cell, stimulated with CD3 antibody OKT3 and CD28 antibody CD28.2
Experimental: CD4^+ T cells were purified from human leukocytes obtained from the Blood Center of New Jersey (East Orange, N.J.) by negative selection (Schafer, P. H., et al., J Immunol, 1999. 162(12): 7110-9). CD4^+ T cells were stimulated with CD3 antibody OKT3 (purified from OKT3 hybridoma supernatant) and CD28 antibody CD28.2 (BD Pharmingen) (Hatzelmann, A. and C. Schudt, J Pharmacol Exp Ther, 2001. 297(1): 267-79). IL-5 was measured by ELISA (R&D Systems).

[3] = system: LPS-induced serum TNF-α in female BALB/c mice; assay: Mouse LPS-induced serum TNF-α production; type: in vivo; conditions: po
Experimental: Mouse LPS-induced serum TNF-α production: Compound A was administered to female BALB/c mice orally by gavage two hours prior to LPS challenge. Blood was drawn 1.5 hours after LPS challenge, and serum TNF-α was measured as described above.

[4] = system: normal human skin xenotransplanted onto beige-SCID mice injected with psoriatic patient NK cells; assay: Human NK cell-driven psoriasis model: human skin xenotransplanted onto beige-SCID mice; type: in vivo; conditions: 5 mg/kg/day p.o., b.i.d., 14 days
Experimental: Healthy human skin pieces having a width of 0.4 mm and surface area of 3×3 cm were provided from residual skin of routine plastic surgery procedures from the Plastic Surgery Department of the Rambam Medical Center, Isreal. In addition, blood samples from psoriatic patients were taken at a volume of 25 mL.
Twenty-one (21) beige-severe combined immunodeficient mice (SCID) (weight about 20 g) were included in this study. Normal human skin was transplanted onto the beige-SCID mice as previously described by Nickoloff et al., 1995; Wrone-Smith, et al., 1996. A sample of each donor was transplanted onto […] so that the three treatment groups (n=7 mice/group) were homogenous.
PBMC from the psoriatic patient blood were isolated and cultured in the presence of IL-2 (100 U/mL of media) for 14 days to activate the NK cells, as previously described by Gilhar et al., J. Invest. Dermatol. 2002, 119(2):384-91. Four weeks following the engraftment, each mouse was injected with 1×10^7 psoriatic patients activated allogeneic NK cells (1×10^7 cells injected/mouse, n=21). Two weeks following the injections, the mice were divided and treated, twice a day for 14 days. All compounds were dosed at 5 mg/kg/day, divided into b.i.d. doses. To perform p.o. administration, mice were held firmly by gently gripping their fur over the neck with thumb and index fingers and restraining the tail with the little finger. A volume of 0.05 mL of a 1 mg/ml aqueous solution of Compound A was administrated twice a day (b.i.d.) with a syringe through a blunt-ended curved feeding tube, which was inserted into the esophagus. The vehicle (negative) control groups received 0.05 mL (b.i.d.) of a 0.5% carboxymethylcellulose and 0.25% Tween 80. […] Two weeks after starting the treatments (4 weeks following the injections), the skins were harvested. Grafts were analyzed by histology and immunohistochemistry.
Determination of Epidermal Thickness: Skin graft histological assessment was performed by light microscopy both before and after transplantation and two blinded observers performed the evaluations. Epidermal thickness was determined with an ocular micrometer, at a minimum of 50 points along the epidermis selected to represent points of maximal and minimal thickness. Thickness of the suprapapillary plate was similarly measured at 50 points for each sample.
Immunohistochemical Staining: Monoclonal antibodies to human antigens used were as follows for immunohistochemistry on frozen sections: anti-HLA-DR (Becton Dickenson, San Jose, Calif.), and anti-CD54 (ICAM-1) (Biodesign, Saco, Me.). Purified murine IgG was used as a control for the above antibodies. Immunohistochemistry was performed on OCT embedded specimens with a biotin-avidin system (Vectostain, Vector Laboratories, Burlingame, Calif.).
Goat anti-human TNF-α (R&D Systems, Minneapolis, Minn.) was used on deparaffinized and peroxidase blocked slides. Sections were treated with citrate buffer, pH=6, in the microwave oven for 20 minutes. The sections were then cooled for 30 minutes at room temperature and blocked for non-specific binding as well as avidin-biotin. All washes were performed with phosphate-buffered saline-saponin. Anti-TNF-α was applied overnight at 4° C. Slides were then incubated with biotinylated rabbit anti goat-IgG (DAKO, Carpinteria, Calif.), followed by streptavidin horseradish peroxidase (HRP) (Jackson Immunoresearch, West Grove, Pa.). The color was developed with 3-amino-9-ethylcarbazole (AEC).
Scoring of Immunohistochemical Staining: Diffuse staining was defined as positive and intense expression of more than 50 percent of the epidermis versus focal staining which was defined as less than 50 percent of the epidermis. Focal staining may represent positive expression of very small areas.
Statistical Analysis: Statistical analysis was carried out using the one-way ANOVA with a Bonferroni Multiple Comparison post-hoc test using Prism 4.00 (GraphPad Software; San Diego, Calif.).

CCOc1cc([C@@H](CS(C)(=O)=O)N2Cc3cccc(NC(=O)C4CC4)c3C2=O)ccc1OC [Compound A, cyclopropyl-N-{2-[(1S)-1-(3-ethoxy-4-methoxyphenyl)-2-(methylsulfonyl)ethyl]-3-oxoisoindoline-4-yl}carboxamide]
inhibition at 10 µM [1]: -7%
IC50 [2]: 520 nM and 0.25 µg/mL
inhibition at 0.1 mg/kg ([3]; 2 h, 0.1 mg/kg p.o., two hours prior to LPS, n=2, read-out: inhibition of mouse LPS-induced serum TNF-α levels): 3%
inhibition at 1 mg/kg ([3]; 2 h, 1 mg/kg p.o., two hours prior to LPS, n=2, read-out: inhibition of mouse LPS-induced serum TNF-α levels): 83%
ED50 ([3]; read-out: Mouse LPS-induced serum TNF-α inhibition ED50): 0.1 to 1 mg/kg
HLA-DR staining: number of grafts (of 7) with Diffuse pattern [4]: 4 Diffuse
Histological features: Complete Recovery (grafts of 7) [4]: 3/7
Histological features: Partial Recovery (grafts of 7) [4]: 1/7
Histological features: Psoriasiform (grafts of 7) [4]: 3/7
ICAM-1 staining: number of grafts (of 7) with Diffuse pattern [4]: 3 Diffuse
Recovery, partial or complete (grafts of 7) [4]: (4/7)
TNF-α staining: number of grafts (of 7) with Multiple TNF-α positive cells [4]: 3 Multiple
decrease in epidermal thickness compared to vehicle treated animals [4]: ~50%
grafts (of 7) with ICAM-1 reduced to focal or negative expression [4]: 4/7
grafts (of 7) with few or negative TNF-α expressing cells [4]: 4/7
overall response rate (partial plus complete recovery from psoriasis features) [4]: 57%
percentage of grafts with HLA-DR reduced to focal or negative expression [4]: 43%
percentage of grafts with ICAM-1 reduced to focal or negative expression [4]: 57%
percentage of grafts with focal HLA-DR expression [4]: 14.3%
percentage of grafts with negative HLA-DR expression [4]: 28.6%
percentage of grafts with reduced TNF-α expression (partial and complete recovery) [4]: 57%
Epidermal Thickness, Mean ([4]; mean of 7 grafts): 736 μm
Proliferation Index (Ki-67 positive keratinocytes), Mean ([4]; mean of 7 grafts): 26.2%
mean epidermal thickness ([4]; mean of 7 mice): 736 microns
Epidermal Thickness of individual skin graft ([4]; Patient 1): 687 μm
Histological Evaluation of individual skin graft ([4]; Patient 1): Partial recovery w/
Proliferation Index of individual skin graft ([4]; Patient 1): 41.9%
Epidermal Thickness of individual skin graft ([4]; Patient 2): 1098 μm
Histological Evaluation of individual skin graft ([4]; Patient 2): Psoriasiform
Proliferation Index of individual skin graft ([4]; Patient 2): 47.4%
Epidermal Thickness of individual skin graft ([4]; Patient 3): 626 μm
Histological Evaluation of individual skin graft ([4]; Patient 3): Psoriasiform
Proliferation Index of individual skin graft ([4]; Patient 3): 33.5%
Epidermal Thickness of individual skin graft ([4]; Patient 4): 333 μm
Histological Evaluation of individual skin graft ([4]; Patient 4): Complete recovery
Proliferation Index of individual skin graft ([4]; Patient 4): 12.2%
Epidermal Thickness of individual skin graft ([4]; Patient 5): 457 μm
Histological Evaluation of individual skin graft ([4]; Patient 5): Complete recovery
Proliferation Index of individual skin graft ([4]; Patient 5): 9.2%
Epidermal Thickness of individual skin graft ([4]; Patient 6): 627 μm
Histological Evaluation of individual skin graft ([4]; Patient 6): Complete recovery
Proliferation Index of individual skin graft ([4]; Patient 6): 21.4%
Epidermal Thickness of individual skin graft ([4]; Patient 7): 1324 μm
Histological Evaluation of individual skin graft ([4]; Patient 7): Psoriasiform
Proliferation Index of individual skin graft ([4]; Patient 7): 17.5%
